Assay [1] concerns the target T1, Cel7A cellobiohydrolase (exoglucanase) (Trichoderma reesei, UniProt P62694).
T1 sequence (P62694 18-513): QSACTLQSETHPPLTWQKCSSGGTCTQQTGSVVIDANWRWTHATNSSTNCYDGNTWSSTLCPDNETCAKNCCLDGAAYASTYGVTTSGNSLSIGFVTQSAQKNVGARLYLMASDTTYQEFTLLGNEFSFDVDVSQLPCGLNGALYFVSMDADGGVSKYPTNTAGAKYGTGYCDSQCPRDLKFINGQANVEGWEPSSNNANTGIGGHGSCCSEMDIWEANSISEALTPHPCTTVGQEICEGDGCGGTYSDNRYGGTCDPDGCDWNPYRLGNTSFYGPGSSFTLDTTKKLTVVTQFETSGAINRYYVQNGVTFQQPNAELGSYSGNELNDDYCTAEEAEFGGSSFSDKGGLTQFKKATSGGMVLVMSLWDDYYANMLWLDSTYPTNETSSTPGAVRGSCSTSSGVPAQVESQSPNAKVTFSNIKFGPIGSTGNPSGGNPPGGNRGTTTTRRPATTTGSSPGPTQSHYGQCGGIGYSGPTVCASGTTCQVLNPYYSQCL
As to conditions: non-competitive inhibition; Vonhoff et al.; read-out: I50; cited from earlier work.

In a further assay the test system is exoglucanase. The assay is described as follows: Post-feeding inhibition of exoglucanase activity in whole-body homogenates. In kind it is in vivo, R. flavipes. As to conditions: after 24 days feeding at 5 mM and above. The method, then: (§1) Whole body homogenates were used for optimization and post-feeding inhibition studies. Here, 10-15 termite workers were homogenized in 1 to 1.5 ml ice-cold homogenization buffer with a Teflon-glass (Potter-Elvehjem) homogenizer powered by a motorized electric stirrer (Fisher Scientific). After homogenization, both gut region and whole-body preparations were centrifuged at 15,000× g and 4° C. for 15 min. The resulting supernatants from the different gut regions were used directly for subsequent enzyme assays. Supernatants from whole-body homogenates were passed through glass wool to remove excess lipids before proceeding with cellulase activity assays.
(§2) Cellulase activity assays were adapted from Han et al. in “Characterization of a bifunctional cellulase and its structural gene,” J. Biol. Chem. 270 (1995) 26012-26019, with optimization for a 96-well microplate format. […] Color was allowed to develop on ice for 15 min before measuring absorbance at 540 nm relative to a glucose standard curve.
(§3) The hydrolysis product of both the pNPC and pNPG substrates is p-nitrophenol, which is yellow in color and permits for direct quantification of activity in a kinetic assay. pNPC and pNPG assays were initially incubated at 32° C. for 20 min before measuring the release of the product, p-nitrophenol, at 420 nm. […]

Another assay deals with β-glucosidase. In words: Post-feeding inhibition of β-glucosidase activity in whole-body homogenates. As to conditions: after 24 days feeding at 25 mM and above. In kind it is in vivo, R. flavipes. The method, then:
as §1, §2, §3

The target of assay [2] is T2, 6A cellobiohydrolase (exoglucanase) (Trichoderma reesei, UniProt P07987).
T2 sequence (P07987 25-471): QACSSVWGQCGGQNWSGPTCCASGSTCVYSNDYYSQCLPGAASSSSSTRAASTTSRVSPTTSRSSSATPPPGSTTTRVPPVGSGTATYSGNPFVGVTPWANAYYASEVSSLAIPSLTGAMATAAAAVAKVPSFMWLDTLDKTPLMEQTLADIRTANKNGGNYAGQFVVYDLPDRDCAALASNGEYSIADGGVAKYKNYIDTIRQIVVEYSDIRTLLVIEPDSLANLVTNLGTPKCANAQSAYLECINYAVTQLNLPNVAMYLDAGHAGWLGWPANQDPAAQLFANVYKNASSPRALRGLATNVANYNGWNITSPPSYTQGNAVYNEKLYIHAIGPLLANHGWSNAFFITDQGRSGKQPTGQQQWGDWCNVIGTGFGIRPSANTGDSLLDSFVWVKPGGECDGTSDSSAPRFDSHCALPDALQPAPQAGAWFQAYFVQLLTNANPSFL
As to conditions: non-competitive inhibition; Vonhoff et al.; read-out: I50; cited from earlier work.

`OC[C@@H]1[C@@H](O[C@@H]2O[C@H](CO)[C@@H](O)[C@H](O)[C@H]2O)[C@H](O)[C@@H](O)c2nccn21` [CBI, cellobioimidazole]: the IC50 in assay [1] was 130 µM; in assay [2], 1 µM. In addition, the “Exoglucanase activity, maximal reduction relative to controls” value in the assay with exoglucanase was roughly 75%. For the same compound, the “β-glucosidase activity, maximal reduction relative to controls” value in the assay with β-glucosidase was roughly 90%.

These data come from patent US20080107619A1, “Carbohydrate based cellulase inhibitors as feeding stimulants in termites” (University of Florida Research Foundation, Inc., priority 2006, published 2008).
